Reference: PubChem BioAssay (NCI)
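The compound was tested at five concentrations on cells cultured in 96-well plates, with a 48-hour exposure period. TGI: concentration producing complete growth inhibition.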

Columns and labels:
Assay in all cases: NCI anticancer screen, dose series, 48 h
SK-MEL-5 melanoma = test system: SK-MEL-5 melanoma
MALME-3M melanoma = test system: MALME-3M melanoma
OVCAR-8 ovarian = test system: OVCAR-8 ovarian
SW-620 colon = test system: SW-620 colon
EKVX NSCLC = test system: EKVX NSCLC
RPMI-8226 leukemia = test system: RPMI-8226 leukemia
UACC-257 melanoma = test system: UACC-257 melanoma
RXF-631 renal = test system: RXF-631 renal
M19-MEL melanoma = test system: M19-MEL melanoma
HOP-92 NSCLC = test system: HOP-92 NSCLC
NCI-H23 lung = test system: NCI-H23 lung
NCI-H226 lung = test system: NCI-H226 lung
SF-268 CNS = test system: SF-268 CNS
SF-539 CNS = test system: SF-539 CNS
SK-MEL-2 melanoma = test system: SK-MEL-2 melanoma
A549 NSCLC = test system: A549 NSCLC
SNB-19 CNS = test system: SNB-19 CNS
MOLT-4 leukemia = test system: MOLT-4 leukemia
CAKI-1 renal = test system: CAKI-1 renal
U251 CNS = test system: U251 CNS
DMS 273 small cell lung = test system: DMS 273 small cell lung
DMS 114 small cell lung = test system: DMS 114 small cell lung
SN12C renal = test system: SN12C renal
OVCAR-5 ovarian = test system: OVCAR-5 ovarian
K-562 leukemia = test system: K-562 leukemia
KM20L2 colon = test system: KM20L2 colon
HOP-18 NSCLC = test system: HOP-18 NSCLC
OVCAR-4 ovarian = test system: OVCAR-4 ovarian
COLO 205 colon = test system: COLO 205 colon
NCI-H522 lung = test system: NCI-H522 lung
RXF 393 renal = test system: RXF 393 renal
HCT-116 colon = test system: HCT-116 colon
KM12 colon = test system: KM12 colon
ACHN renal = test system: ACHN renal
786-0 renal = test system: 786-0 renal
SR leukemia = test system: SR leukemia
UACC-62 melanoma = test system: UACC-62 melanoma
IGROV1 ovarian = test system: IGROV1 ovarian
LXFL 529 NSCLC = test system: LXFL 529 NSCLC
SNB-78 CNS = test system: SNB-78 CNS
HCT-15 colon = test system: HCT-15 colon
CCRF-CEM leukemia = test system: CCRF-CEM leukemia
SF-295 CNS = test system: SF-295 CNS
UO-31 renal = test system: UO-31 renal
HCC-2998 colon = test system: HCC-2998 colon
TK-10 renal = test system: TK-10 renal
M14 melanoma = test system: M14 melanoma
LOX IMVI melanoma = test system: LOX IMVI melanoma
OVCAR-3 ovarian = test system: OVCAR-3 ovarian
SK-OV-3 ovarian = test system: SK-OV-3 ovarian
A498 renal = test system: A498 renal
SNB-75 CNS = test system: SNB-75 CNS
NCI-H460 lung = test system: NCI-H460 lung
DLD-1 colon = test system: DLD-1 colon
HOP-62 NSCLC = test system: HOP-62 NSCLC
SK-MEL-28 melanoma = test system: SK-MEL-28 melanoma
HL-60(TB) leukemia = test system: HL-60(TB) leukemia
HT29 colon = test system: HT29 colon

COC(=O)C(=O)C(C(=O)C(=O)Nc1cc(C)ccc1C)c1nc2ccc(C(=O)c3ccccc3)cc2[nH]c1=O (configuration not stated)
TGI (SK-MEL-5 melanoma): > 100 µM | TGI (MALME-3M melanoma): > 100 µM | TGI (OVCAR-8 ovarian): > 100 µM | TGI (SW-620 colon): > 100 µM | TGI (EKVX NSCLC): > 100 µM | TGI (RPMI-8226 leukemia): > 100 µM | TGI (UACC-257 melanoma): > 100 µM | TGI (RXF-631 renal): > 100 µM | TGI (M19-MEL melanoma): > 100 µM | TGI (HOP-92 NSCLC): 91.8 µM | TGI (NCI-H23 lung): > 100 µM | TGI (NCI-H226 lung): > 100 µM | TGI (SF-268 CNS): > 100 µM | TGI (SF-539 CNS): > 100 µM | TGI (SK-MEL-2 melanoma): > 100 µM | TGI (A549 NSCLC): > 100 µM | TGI (SNB-19 CNS): > 100 µM | TGI (MOLT-4 leukemia): > 100 µM | TGI (CAKI-1 renal): > 100 µM | TGI (U251 CNS): > 100 µM | TGI (DMS 273 small cell lung): > 100 µM | TGI (DMS 114 small cell lung): > 100 µM | TGI (SN12C renal): > 100 µM | TGI (OVCAR-5 ovarian): > 100 µM | TGI (K-562 leukemia): > 100 µM | TGI (KM20L2 colon): > 100 µM | TGI (HOP-18 NSCLC): > 100 µM | TGI (OVCAR-4 ovarian): > 100 µM | TGI (COLO 205 colon): > 100 µM | TGI (NCI-H522 lung): > 100 µM | TGI (RXF 393 renal): > 100 µM | TGI (HCT-116 colon): > 100 µM | TGI (KM12 colon): > 100 µM | TGI (ACHN renal): > 100 µM | TGI (786-0 renal): > 100 µM | TGI (SR leukemia): > 100 µM | TGI (UACC-62 melanoma): > 100 µM | TGI (IGROV1 ovarian): > 100 µM | TGI (LXFL 529 NSCLC): > 100 µM | TGI (SNB-78 CNS): > 100 µM | TGI (HCT-15 colon): > 100 µM | TGI (CCRF-CEM leukemia): > 100 µM | TGI (SF-295 CNS): > 100 µM | TGI (UO-31 renal): > 100 µM | TGI (HCC-2998 colon): > 100 µM | TGI (TK-10 renal): > 100 µM | TGI (M14 melanoma): > 100 µM

COc1cc(/C=C2/C(=O)N(C(=O)OCc3ccccc3)C(Cc3cc(OC)c(OC)c(C)c3OC)C(=O)N2Cc2ccccc2)c(OC)c(C)c1OC (configuration not stated)
TGI (SK-MEL-5 melanoma): 65.9 µM | TGI (MALME-3M melanoma): > 100 µM | TGI (OVCAR-8 ovarian): > 100 µM | TGI (SW-620 colon): > 100 µM | TGI (EKVX NSCLC): > 100 µM | TGI (RPMI-8226 leukemia): > 100 µM | TGI (LOX IMVI melanoma): > 100 µM | TGI (UACC-257 melanoma): > 100 µM | TGI (RXF-631 renal): > 100 µM | TGI (M19-MEL melanoma): > 100 µM | TGI (HOP-92 NSCLC): > 100 µM | TGI (NCI-H23 lung): > 100 µM | TGI (NCI-H226 lung): 12.6 µM | TGI (SF-268 CNS): > 100 µM | TGI (OVCAR-3 ovarian): > 100 µM | TGI (SF-539 CNS): > 100 µM | TGI (SK-OV-3 ovarian): > 100 µM | TGI (A498 renal): > 100 µM | TGI (SK-MEL-2 melanoma): > 100 µM | TGI (A549 NSCLC): > 100 µM | TGI (SNB-19 CNS): > 100 µM | TGI (MOLT-4 leukemia): > 100 µM | TGI (CAKI-1 renal): > 100 µM | TGI (U251 CNS): > 100 µM | TGI (DMS 273 small cell lung): > 100 µM | TGI (SNB-75 CNS): > 100 µM | TGI (DMS 114 small cell lung): > 100 µM | TGI (SN12C renal): > 100 µM | TGI (OVCAR-5 ovarian): > 100 µM | TGI (K-562 leukemia): > 100 µM | TGI (NCI-H460 lung): > 100 µM | TGI (DLD-1 colon): > 100 µM | TGI (KM20L2 colon): > 100 µM | TGI (HOP-18 NSCLC): > 100 µM | TGI (OVCAR-4 ovarian): > 100 µM | TGI (HOP-62 NSCLC): > 100 µM | TGI (COLO 205 colon): > 100 µM | TGI (NCI-H522 lung): > 100 µM | TGI (RXF 393 renal): > 100 µM | TGI (HCT-116 colon): > 100 µM | TGI (KM12 colon): > 100 µM | TGI (ACHN renal): > 100 µM | TGI (786-0 renal): > 100 µM | TGI (SR leukemia): > 100 µM | TGI (UACC-62 melanoma): > 100 µM | TGI (SK-MEL-28 melanoma): > 100 µM | TGI (IGROV1 ovarian): > 100 µM | TGI (LXFL 529 NSCLC): > 100 µM | TGI (SF-295 CNS): > 100 µM | TGI (UO-31 renal): > 100 µM | TGI (HCC-2998 colon): > 100 µM | TGI (TK-10 renal): > 100 µM | TGI (M14 melanoma): > 100 µM | TGI (HL-60(TB) leukemia): > 100 µM | TGI (HT29 colon): > 100 µM
